Drawing on US8846739B2, “TGR5 agonists” (Exelixis Patent Company LLC, priority 2009, dated 2014), this text covers EC50 for 15 compounds.

One experiment deals with T1, human TGR5 (h-TGR5) (Homo sapiens, UniProt Q8TDU6).
T1 sequence (Q8TDU6 1-330): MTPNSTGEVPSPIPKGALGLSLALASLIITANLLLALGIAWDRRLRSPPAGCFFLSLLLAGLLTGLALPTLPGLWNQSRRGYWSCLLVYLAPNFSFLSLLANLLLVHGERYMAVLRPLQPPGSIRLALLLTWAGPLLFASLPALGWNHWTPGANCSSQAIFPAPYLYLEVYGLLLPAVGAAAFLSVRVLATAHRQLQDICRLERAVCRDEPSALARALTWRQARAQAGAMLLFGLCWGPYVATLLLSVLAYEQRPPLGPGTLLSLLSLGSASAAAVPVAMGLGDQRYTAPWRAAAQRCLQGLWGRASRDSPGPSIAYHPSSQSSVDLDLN
Kind of experiment: TGR5/CRE-Luciferase Assay. The class given is cell-based. The following applies: HEK 293 hTGR5/CRE-Luc cells, 6 hours incubation, read-out: CRE-Luc Agonist (EC50). As for the experimental part: HEK 293 cells stably expressing human TGR5 (h-TGR5) or mouse TGR5 (m-TGR5) were generated from HEK 293 CRE-Luciferase cells. The day before the assay, HEK 293 hTGR5/CRE-Luc cells were plated in DMEM in a 384 well assay plate at a density of 25 k cells/45 μL per well and grown for 18-20 hours. Compounds were serially diluted in DMEM containing 5% DMSO and 5 µL of compound or media alone was transferred to each well and plates were incubated for 6 hours. Following incubation, 30 μL of lysis/luciferase buffer was added to each well. The luciferase activity was then measured on the EnVision™ plate reader and the dose response data was analyzed using ActivityBase.
(§1) In the following tables, ECso values determined according to the TGR5 cAMP Assay are noted (cAMP); EC50 values determined according to the TGR5/CRE-Luciferiase Assay are noted (CRE-Luc).

The target of a further experiment is T2, h-TGR5 (Homo sapiens, UniProt Q8TDU6).
T2 sequence (Q8TDU6 1-330): T1 sequence (Q8TDU6 1-330)
Kind of experiment: TGR5 cAMP Assay using Cisbio cAMP Dynamic 2 htrf assay kit. It counts as cell-based. Particulars: hTGR5CRE-luc HEK 293 cells. The procedure: Compounds were diluted in DPBS with 5% DMSO (8-point serial dilution by half logs) in a 96-well plate and 1 μL was transferred to a 384-well assay plate in quadruplicate. The d2-cAMP and anti-cAMP Ab-cryptate stock solution were prepared as per the instructions in the Cisbio™ (Bedford, Mass.) kit. Cells (hTGR5CRE-luc HEK 293 and mTGR5CRE-luc HEK 293) were harvested using cell dissociation buffer and resuspended in DPBS. Cells were adjusted to 0.44×10^6 cells/ml followed by addition of IBMX to a final concentration of 0.5 mM. The cells were then mixed with d2-cAMP solution (7.1 mL cells+100 ul d2-cAMP) and 4000 cells (9 μL) were transferred to each well of the 384-well assay plate. Cells without d2-cAMP were added to eight wells as a negative control. The plate was covered and incubated at room temp for 30 min. Then 10 μL of Ab-cryptate solution was added to each well of the assay plate and incubated for 1 hr. The plate was read on an EnVision™ plate reader (Perkin-Elmer, Waltham, Mass.) and the DeltaF value was calculated as per the instructions in the Cisbio™ kit.
as §1

pEC50: −log10 of the molar value.

The pEC50 is −log10 of the EC50, conventionally taken in molar units. Consider `COc1cc(C(C)(C)c2cnc(SCc3c(F)cc(S(=O)(=O)N4CC([N+](C)(C)C)C4)cc3Cl)n2-c2ccc(F)cc2)ccc1Cl` [Compound 11n, 1-{[3-chloro-4-({[5-{1-[4-chloro-3-(methyloxy)phenyl]-1-methylethyl}-1-(4-fluorophenyl)-1H-imidazol-2-yl]thio}methyl)-5-fluorophenyl]sulfonyl}-N,N,N-trimethylazetidin-3-aminium], for which the pEC50 on human TGR5 (h-TGR5) and on h-TGR5 was > 7.00 throughout.
For `COc1cc(C(C)(C)c2cnc(SCc3c(F)cc(S(=O)(=O)N4CCC([N+](C)(C)C)CC4)cc3Cl)n2-c2ccc(F)cc2)ccc1F` [Compound 11o, 1-{[3-chloro-5-fluoro-4-({[5-{1-[4-fluoro-3-(methyloxy)phenyl]-1-methylethyl}-1-(4-fluorophenyl)-1H-imidazol-2-yl]thio}methyl)phenyl]sulfonyl}-N,N,N-trimethylpiperidin-4-aminium], the pEC50 on human TGR5 (h-TGR5) and at h-TGR5 was > 7.00 each time.
As for `COc1cc(C(C)(C)c2cnc(SCc3c(F)cc(S(=O)(=O)N4CCC[C@@H]([N+](C)(C)C)C4)cc3Cl)n2-c2ccc(F)cc2)ccc1F` [Compound 11p, (3R)-1-{[3-chloro-5-fluoro-4-({[5-{1-[4-fluoro-3-(methyloxy)phenyl]-1-methylethyl}-1-(4-fluorophenyl)-1H-imidazol-2-yl]thio}methyl)phenyl]sulfonyl}-N,N,N-trimethylpiperidin-3-aminium], the pEC50 on human TGR5 (h-TGR5) and at h-TGR5 was > 7.00 throughout.
On to `CC[N+](C)(C)C1CCN(S(=O)(=O)c2cc(F)c(CSc3ncc(C(C)(C)c4ccc(F)c(OC)c4)n3-c3ccc(F)cc3)c(Cl)c2)CC1` [Compound 11q, 1-{[3-chloro-5-fluoro-4-({[5-{1-[4-fluoro-3-(methyloxy)phenyl]-1-methylethyl}-1-(4-fluorophenyl)-1H-imidazol-2-yl]thio}methyl)phenyl]sulfonyl}-N-ethyl-N,N-dimethylpiperidin-4-aminium], for which the pEC50 on human TGR5 (h-TGR5) and on h-TGR5 was > 7.00 in each case.
Consider `COc1cc(C(C)(C)c2cnc(SCc3c(F)cc(S(=O)(=O)N4CC(C[N+](C)(C)C)C4)cc3Cl)n2-c2ccc(F)cc2)ccc1Cl` [Compound 11r, (1-{[3-chloro-4-({[5-{1-[4-chloro-3-(methyloxy)phenyl]-1-methylethyl}-1-(4-fluorophenyl)-1H-imidazol-2-yl]thio}methyl)-5-fluorophenyl]sulfonyl}azetidin-3-yl)-N,N,N-trimethylmethanaminium], for which the pEC50 at human TGR5 (h-TGR5) and at h-TGR5 was > 7.00 each time.
With `COc1cc(C(C)(C)c2cnc(SCc3c(F)cc(S(=O)(=O)NCC4CC[N+](C)(C)CC4)cc3Cl)n2-c2ccc(F)cc2)ccc1F` [Compound 11s, 4-[({[3-chloro-5-fluoro-4-({[5-{1-[4-fluoro-3-(methyloxy)phenyl]-1-methylethyl}-1-(4-fluorophenyl)-1H-imidazol-2-yl]thio}methyl)phenyl]sulfonyl}amino)methyl]-1,1-dimethylpiperidinium], the pEC50 on human TGR5 (h-TGR5) and on h-TGR5 was > 7.00 throughout.
In the case of `COc1cc(C(C)(C)c2cnc(SCc3c(F)cc(S(=O)(=O)Nc4cccc[n+]4C)cc3Cl)n2-c2ccc(F)cc2)ccc1F` [Compound 11t, 2-({[3-chloro-5-fluoro-4-({[5-{1-[4-fluoro-3-(methyloxy)phenyl]-1-methylethyl}-1-(4-fluorophenyl)-1H-imidazol-2-yl]thio}methyl)phenyl]sulfonyl}amino)-1-methylpyridinium], the pEC50 on human TGR5 (h-TGR5) and on h-TGR5 was > 7.00 in each case.
Turning to `COc1cc(C(C)(C)c2cnc(SCc3c(F)cc(S(=O)(=O)N4CCC[C@@H](C[N+](C)(C)C)C4)cc3Cl)n2-c2ccc(F)cc2)ccc1F` [Compound 11u, [(3S)-1-{[3-chloro-5-fluoro-4-({[5-{1-[4-fluoro-3-(methyloxy)phenyl]-1-methylethyl}-1-(4-fluorophenyl)-1H-imidazol-2-yl]thio}methyl)phenyl]sulfonyl}piperidin-3-yl]-N,N,N-trimethylmethanaminium], the pEC50 at human TGR5 (h-TGR5) and on h-TGR5 was > 7.00 each time.
As for `COc1cc(C(C)(C)c2cnc(SCc3c(F)cc(S(=O)(=O)N4CC[C@@H](C[N+](C)(C)C)C4)cc3Cl)n2-c2ccc(F)cc2)ccc1F` [Compound 11v, [(3S)-1-{[3-chloro-5-fluoro-4-({[5-(1-[4-fluoro-3-(methyloxy)phenyl]-1-methylethyl}-1-(4-fluorophenyl)-1H-imidazol-2-yl]thio}methyl)phenyl]sulfonyl}pyrrolidin-3-yl]-N,N,N-trimethylmethanaminium], the pEC50 on human TGR5 (h-TGR5) and at h-TGR5 was > 7.00 each time.
With `COc1cc(C(C)(C)c2cnc(SCc3c(F)cc(S(=O)(=O)N4CCC[C@H](C[N+](C)(C)C)C4)cc3Cl)n2-c2ccc(F)cc2)ccc1F` [Compound 11w, [(3R)-1-{[3-chloro-5-fluoro-4-({[5-{1-[4-fluoro-3-(methyloxy)phenyl]-1-methylethyl}-1-(4-fluorophenyl)-1H-imidazol-2-yl]thio}methyl)phenyl]sulfonyl}piperidin-3-yl]-N,N,N-trimethylmethanaminium], the pEC50 on human TGR5 (h-TGR5) and on h-TGR5 was > 7.00 in each case.
Regarding `COc1cc(C(C)(C)c2cnc(SCc3c(F)cc(S(=O)(=O)N4CCC(C[N+](C)(C)C)(C(=O)O)CC4)cc3F)n2-c2ccc(F)cc2)ccc1Cl` [Compound 11x, (4-carboxy-1-{[4-({[5-{1-[4-chloro-3-(methyloxy)phenyl]-1-methylethyl}-1-(4-fluorophenyl)-1H-imidazol-2-yl]thio}methyl)-3,5-difluorophenyl]sulfonyl}piperidin-4-yl)-N,N,N-trimethylmethanaminium], the pEC50 at human TGR5 (h-TGR5) and at h-TGR5 was > 7.00 throughout.
Take `COc1cc(C(C)(C)c2cnc(SCc3c(F)cc(S(=O)(=O)N(C)CCC[N+](C)(C)C)cc3F)n2-c2ccc(F)cc2)ccc1Cl` [Compound 12a, 3-(4-((5-(2-(4-chloro-3-methoxyphenyl)propan-2-yl)-1-(4-fluorophenyl)-1H-imidazol-2-ylthio)methyl)-3,5-difluoro-N-methylphenylsulfonamido)-N,N,N-trimethylpropan-1-aminium 2,2,2-trifluoroacetate]: the pEC50 on human TGR5 (h-TGR5) and on h-TGR5 was > 7.00 each time.
With `COc1cc(C(C)(C)c2cnc(SCc3c(F)cc(S(=O)(=O)N(C)CCC[N+](C)(C)C)cc3Cl)n2-c2ccc(F)cc2)ccc1Cl` [Compound 12c, 3-(3-chloro-4-((5-(2-(4-chloro-3-methoxyphenyl)propan-2-yl)-1-(4-fluorophenyl)-1H-imidazol-2-ylthio)methyl)-5-fluoro-N-methylphenylsulfonamido)-N,N,N-trimethylpropan-1-aminium 2,2,2-trifluoroacetate], the pEC50 on human TGR5 (h-TGR5) and at h-TGR5 was > 7.00 in each case.
In the case of `COc1cc(C(C)(C)c2cnc(SCc3c(F)cc(S(=O)(=O)N(C)CCC[N+](C)(C)C)cc3Cl)n2-c2ccc(F)cc2)ccc1F` [Compound 12d, 3-(3-chloro-5-fluoro-4-((5-(2-(4-fluoro-3-methoxyphenyl)propan-2-yl)-1-(4-fluorophenyl)-1H-imidazol-2-ylthio)methyl)-N-methylphenylsulfonamido)-N,N,N-trimethylpropan-1-aminium 2,2,2-trifluoroacetate], the pEC50 on human TGR5 (h-TGR5) and at h-TGR5 was > 7.00 throughout.
For the compound `COc1cc(C(C)(C)c2cnc(COc3c(F)cc(S(=O)(=O)N(C)CCC[N+](C)(C)C)cc3Cl)n2-c2ccc(F)cc2)ccc1Cl` [Compound 12e, 3-(3-Chloro-4-((5-(2-(4-chloro-3-methoxyphenyl)propan-2-yl)-1-(4-fluorophenyl)-1H-imidazol-2-yl)methoxy)-5-fluoro-N-methylphenylsulfonamido)-N,N,N-trimethylpropan-1-aminium 2,2,2-trifluoroacetate], the pEC50 on human TGR5 (h-TGR5) and on h-TGR5 was > 7.00 each time.
